# Experiments:
# dog [1] = conditions: Subchronic oral toxicity in nonrodent, beagle, Feed, dose end: 90 day, group: systemic, systemic / hematology / [other] / [other] + systemic / hematology / anisocytosis / anisocytosis + systemic / hematology / leukocyte (wbc) …
# rat [2] = conditions: Multigenerational reproductive toxicity study, sprague dawley, Oral, Feed, dose end: 2 generation
# dog [3] = conditions: Chronic toxicity; beagle; Oral; Feed; dose end: 1 year; group: systemic; systemic / pathology microscopic / kidney / fatty change + systemic / pathology microscopic / kidney / lipofuscin deposits + systemic / …
# rat [4] = conditions: Combined chronic toxicity/carcinogenicity; sprague dawley; Oral; Feed; dose end: 2 year; group: systemic; systemic / clinical chemistry / bilirubin / total bilirubin + systemic / hematology / lymphocyte / lymphocyte + systemic / hematology / …
# rabbit [5] = conditions: Prenatal developmental toxicity study, new zealand white, Oral, Gavage/Intubation, dose end: 19 GD
# rat [6] = conditions: Subchronic oral toxicity in rodents, sprague dawley, Feed, dose end: 90 day, group: systemic
# mouse [7] = conditions: Subchronic oral toxicity in rodents, cd1, Feed, dose end: 3 month, group: systemic, systemic / clinical chemistry / albumin / albumin + systemic / clinical chemistry / bilirubin / total bilirubin + systemic / organ weight / …
# mouse [8] = conditions: Carcinogenicity, cd1, Oral, Feed, dose end: 18 month, group: systemic
# rat [9] = conditions: Prenatal developmental toxicity study, sprague dawley, Oral, Gavage/Intubation, dose end: 15 GD
# rat [10] = conditions: Sub-acute repeat dose toxicity, Oral, Gavage/Intubation, dose end: 7 day, group: systemic
# rat [11] = conditions: Sub-acute repeat dose toxicity, Oral, Gavage/Intubation, dose end: 28 day, group: systemic
# dog [12] = conditions: Sub-acute repeat dose toxicity, beagle, Oral, Gavage/Intubation, dose end: 28 day, group: systemic
# mouse [13] = conditions: Carcinogenicity; cd1; Oral; Feed; dose end: 78 week; group: systemic; systemic / in life observation / body weight / body weight + systemic / in life observation / body weight / body weight gain
# dog [14] = conditions: Chronic toxicity, beagle, Oral, Gavage/Intubation, dose end: 12 month, group: systemic
# rabbit [15] = conditions: Prenatal developmental toxicity study, new zealand white, Oral, Gavage/Intubation, dose end: 18 GD
# rat [16] = conditions: Subchronic dermal toxicity, sprague dawley, Topical, dose end: 90 day, group: systemic
# rat [17] = conditions: Combined chronic toxicity/carcinogenicity; sprague dawley; Oral; Feed; dose end: 104 week; group: systemic; systemic / pathology microscopic / lymph node / hemorrhage + systemic / pathology microscopic / lymph node / hemosiderosis + systemic / …
# rat [18] = conditions: Subchronic oral toxicity in rodents, sprague dawley, Feed, dose end: 90 day, group: systemic, systemic / in life observation / body weight / body weight + systemic / in life observation / body weight / body weight gain + systemic / in…
# rat [19] = conditions: Prenatal developmental toxicity study, sprague dawley, Oral, Gavage/Intubation, dose end: 15 GD; remark: listed apart in the source
# rat [20] = conditions: Multigenerational reproductive toxicity study, sprague dawley, Oral, Feed, dose end: 2 generation; remark: listed apart in the source
# [21] = group: offspring, systemic / in life observation / body weight / offspring (pup) weight
# [22] = group: parental, systemic / in life observation / body weight / body weight + systemic / in life observation / body weight / body weight gain
# [23] = group: reproductive, reproductive / reproductive performance / fertility / fertility
# [24] = group: developmental, developmental / developmental malformation / general / runts
# [25] = group: developmental, developmental / developmental malformation / general / runts + developmental / developmental malformation / bone / detached + developmental…
# [26] = group: maternal, systemic / in life observation / body weight / body weight gain + systemic / in life observation / food consumption / food consumption + …
# [27] = systemic / in life observation / body weight / body weight + systemic / in life observation / body weight / body weight gain
# [28] = systemic / in life observation / body weight / body weight + systemic / in life observation / body weight / body weight gain + systemic / …
# [29] = group: developmental, developmental / developmental malformation / bone / full supernumerary + developmental / developmental malformation / bone / short …
# [30] = group: maternal, systemic / in life observation / body weight / body weight gain
# [31] = systemic / clinical chemistry / [other] / [other] + systemic / clinical chemistry / albumin / albumin + systemic / clinical chemistry / …
# [32] = systemic / in life observation / clinical signs / salivation
# [33] = systemic / clinical chemistry / alanine aminotransferase (alt/sgpt) / alanine aminotransferase (alt/sgpt) + systemic / clinical chemistry / …
# [34] = systemic / in life observation / clinical signs / lacrimation or red-colored tears + systemic / in life observation / clinical signs / …
# [35] = systemic / in life observation / body weight / body weight + systemic / in life observation / clinical signs / dialated pupils + systemic / …
# [36] = systemic / in life observation / clinical signs / dialated pupils + systemic / in life observation / clinical signs / distended abdomens + …
# [37] = systemic / clinical chemistry / cholesterol / cholesterol + systemic / in life observation / clinical signs / emesis + systemic / in life …
# [38] = group: developmental, systemic / in life observation / body weight / fetal weight
# [39] = group: maternal, systemic / in life observation / body weight / body weight gain + systemic / in life observation / clinical signs / abnormal respiratory …
# [40] = group: maternal, systemic / in life observation / clinical signs / defecation (diarrhea) + systemic / in life observation / clinical signs / oral discharge
# [41] = systemic / pathology microscopic / skin / acanthosis
# [42] = group: developmental, developmental / developmental malformation / bone / [other] + developmental / developmental malformation / bone / incomplete ossification + …
# [43] = group: maternal, systemic / in life observation / clinical signs / abnormal respiratory sounds
# [44] = group: maternal, systemic / in life observation / clinical signs / abnormal respiratory sounds + systemic / in life observation / body weight / body weight …
# [45] = group: offspring, systemic / in life observation / body weight / offspring (pup) weight + systemic / in life observation / body weight / offspring (pup) …
# [46] = group: parental, systemic / in life observation / body weight / body weight + systemic / in life observation / body weight / body weight gain + systemic / in…
compound,measurement,setting,value
COc1nc(C)nc(NC(=O)NS(=O)(=O)c2ccccc2CCC(F)(F)F)n1 [Prosulfuron],LEL,dog [1],54 mg/kg/day
same,LOAEL,dog [1],54 mg/kg/day
same,NEL,dog [1],6.5 mg/kg/day
same,NOAEL,dog [1],6.5 mg/kg/day
same,LEL,rat [2]; [21],136 mg/kg/day
same,LOAEL,rat [2]; [21],136 mg/kg/day
same,NEL,rat [2]; [21],13.3 mg/kg/day
same,NOAEL,rat [2]; [21],13.3 mg/kg/day
same,LEL,rat [2]; [22],136 mg/kg/day
same,LOAEL,rat [2]; [22],136 mg/kg/day
same,NEL,rat [2]; [22],13.3 mg/kg/day
same,NOAEL,rat [2]; [22],13.3 mg/kg/day
same,LEL,rat [2]; [23],278 mg/kg/day
same,LOAEL,rat [2]; [23],> 278 mg/kg/day
same,NEL,rat [2]; [23],136 mg/kg/day
same,NOAEL,rat [2]; [23],≥ 278 mg/kg/day
same,LEL,dog [3],18.6 mg/kg/day
same,LOAEL,dog [3],18.6 mg/kg/day
same,NEL,dog [3],1.95 mg/kg/day
same,NOAEL,dog [3],1.95 mg/kg/day
same,LEL,rat [4],0.4 mg/kg/day
same,LOAEL,rat [4],79.9 mg/kg/day
same,NEL,rat [4],< 0.4 mg/kg/day
same,NOAEL,rat [4],7.9 mg/kg/day
same,NEL,rabbit [5]; [24],100 mg/kg/day
same,NOAEL,rabbit [5]; [24],100 mg/kg/day
same,LEL,rabbit [5]; [25],200 mg/kg/day
same,LOAEL,rabbit [5]; [25],200 mg/kg/day
same,LOAEL,"rabbit [5]; group: maternal, systemic / in life observation / body weight / body weight gain + systemic / in life observation / food consumption / food consumption",100 mg/kg/day
same,LEL,rabbit [5]; [26],100 mg/kg/day
same,NEL,rabbit [5]; [26],20 mg/kg/day
same,NOAEL,rabbit [5]; [26],20 mg/kg/day
same,LEL,rat [6]; [27],31 mg/kg/day
same,LOAEL,rat [6]; [27],31 mg/kg/day
same,NEL,rat [6]; [28],3.1 mg/kg/day
same,NOAEL,rat [6]; [28],3.1 mg/kg/day
same,LEL,mouse [7],69.3 mg/kg/day
same,LOAEL,mouse [7],69.3 mg/kg/day
same,NEL,mouse [7],2.01 mg/kg/day
same,NOAEL,mouse [7],2.01 mg/kg/day
same,LOAEL,mouse [8]; systemic / in life observation / body weight / body weight gain,508 mg/kg/day
same,NOAEL,mouse [8]; systemic / in life observation / body weight / body weight gain + systemic / hematology / mean corpuscular hemoglobin concentration (mchc…,100 mg/kg/day
same,LEL,mouse [8]; systemic / pathology microscopic / liver / hypertrophy,81.4 mg/kg/day
same,NEL,mouse [8]; systemic / pathology microscopic / liver / hypertrophy + systemic / hematology / hematocrit (hct) / hematocrit (hct) + systemic / in life …,1.71 mg/kg/day
same,LEL,rat [9]; [29],400 mg/kg/day
same,LOAEL,rat [9]; [29],400 mg/kg/day
same,NEL,rat [9]; [29],200 mg/kg/day
same,NOAEL,rat [9]; [29],200 mg/kg/day
same,LEL,rat [9]; [30],400 mg/kg/day
same,LOAEL,rat [9]; [30],400 mg/kg/day
same,NEL,rat [9]; [30],200 mg/kg/day
same,NOAEL,rat [9]; [30],200 mg/kg/day
CSc1ccc(Oc2ccc(S(N)(=O)=O)cc2CN(C)C)cc1C,LOAEL,rat [10]; [31],> 1000 mg/kg/day
same,NOAEL,rat [10]; [31],≥ 1000 mg/kg/day
same,LEL,rat [10]; [32],250 mg/kg/day
same,NEL,rat [10]; [32],< 250 mg/kg/day
same,LOAEL,rat [11]; [33],> 500 mg/kg/day
same,NOAEL,rat [11]; [33],≥ 500 mg/kg/day
same,LEL,rat [11]; [34],5 mg/kg/day
same,NEL,rat [11]; [34],< 5 mg/kg/day
same,LOAEL,dog [12]; [35],> 40 mg/kg/day
same,NOAEL,dog [12]; [35],≥ 40 mg/kg/day
same,LEL,dog [12]; [36],4 mg/kg/day
same,NEL,dog [12]; [36],< 4 mg/kg/day
CCCCCCCCCC[N+](C)(C)CCCCCCCCCC.[Cl-] [Didecyldimethylammonium chloride],LEL,mouse [13],156 mg/kg/day
same,LOAEL,mouse [13],156 mg/kg/day
same,NEL,mouse [13],76.3 mg/kg/day
same,NOAEL,mouse [13],76.3 mg/kg/day
same,LOAEL,dog [14]; [37],20 mg/kg/day
same,NEL,dog [14]; [37],3 mg/kg/day
same,NOAEL,dog [14]; [37],10 mg/kg/day
same,LEL,dog [14]; systemic / in life observation / clinical signs / emesis + systemic / in life observation / clinical signs / mucoid stools + systemic / in …,10 mg/kg/day
same,LEL,rabbit [15]; [38],10 mg/kg/day
same,LOAEL,rabbit [15]; [38],10 mg/kg/day
same,NEL,rabbit [15]; [38],3 mg/kg/day
same,NOAEL,rabbit [15]; [38],3 mg/kg/day
same,LOAEL,rabbit [15]; [39],3 mg/kg/day
same,NOAEL,rabbit [15]; [39],1 mg/kg/day
same,LEL,rabbit [15]; [40],1 mg/kg/day
same,NEL,rabbit [15]; [40],< 1 mg/kg/day
same,LEL,rat [16]; [41],2 mg/kg/day
same,NEL,rat [16]; [41],< 2 mg/kg/day
same,LOAEL,rat [16]; systemic / pathology microscopic / skin / acanthosis + systemic / pathology microscopic / skin / inflammation,6 mg/kg/day
same,NOAEL,rat [16]; systemic / pathology microscopic / skin / acanthosis + systemic / pathology microscopic / skin / inflammation + systemic / in life …,2 mg/kg/day
same,LEL,rat [17],64 mg/kg/day
same,LOAEL,rat [17],64 mg/kg/day
same,NEL,rat [17],32 mg/kg/day
same,NOAEL,rat [17],32 mg/kg/day
same,LEL,rat [18],175 mg/kg/day
same,LOAEL,rat [18],175 mg/kg/day
same,NEL,rat [18],60.7 mg/kg/day
same,NOAEL,rat [18],60.7 mg/kg/day
same,LEL,rat [19]; [42],20 mg/kg/day
same,LOAEL,rat [19]; [42],20 mg/kg/day
same,NEL,rat [19]; [42],10 mg/kg/day
same,NOAEL,rat [19]; [42],10 mg/kg/day
same,LEL,rat [19]; [43],10 mg/kg/day
same,LOAEL,rat [19]; [43],10 mg/kg/day
same,NEL,rat [19]; [44],1 mg/kg/day
same,NOAEL,rat [19]; [44],1 mg/kg/day
same,LEL,rat [20]; [45],101 mg/kg/day
same,LOAEL,rat [20]; [45],101 mg/kg/day
same,NEL,rat [20]; [45],48.2 mg/kg/day
same,NOAEL,rat [20]; [45],48.2 mg/kg/day
same,LEL,rat [20]; [46],101 mg/kg/day
same,LOAEL,rat [20]; [46],101 mg/kg/day
same,NEL,rat [20]; [46],48.2 mg/kg/day
same,NOAEL,rat [20]; [46],48.2 mg/kg/day
